Earlier results, collected in patent publication US20110313054A1, “BRANCHED COPOLYMERS, COMPOSITION AND USES” (Unilever PLC, priority 2009, published 2011).

Details: in water at 20° C.

| SMILES | Solubility in water w/w at 20° C. |
| --- | --- |
| C=CC(=O)OCCO [2-Hydroxyethyl acrylate] | soluble |
| C=C(C)C(=O)OCCO [2-Hydroxyethyl methacrylate] | 3.00 w/w |
| C=C(C)C(=O)OCC(C)O (centres unmarked) [2-Hydroxypropyl methacrylate] | 2.17 w/w |
| C=CC(=O)OCC(C)O (centres unmarked) [2-Hydroxypropyl acrylate] | Soluble |
| C=C(C)C(=O)O [Methacrylic acid] | Soluble |
